{"source": "patent US10798941B2", "about": "“Microbiocidal oxadiazole derivatives” (SYNGENTA PARTICIPATIONS AG, priority 2016, dated 2020)", "key": {"[1]": {"tested_on": "Puccinia recondita f. Sp. Tritici", "assay": "Puccinia recondita f. sp. tritici / wheat / leaf disc preventative (brown rust)", "format": "in vivo", "details": "foliar, 168 h, 200 ppm in the applied formulation, wheat leaf segments cv. Kanzler, preventative, inoculated 1 day after application, assessed 7 to 9 days after application, vs untreated, read-out: disease control", "procedure,_shortened": "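Wheat cv. Kanzler leaf segments on agar were sprayed with formulated compound in water, then inoculated with spores 1 day later. Incubated at 19° C, 75% rh, 12 h light/12 h dark; percent disease control versus untreated scored 7 to 9 days after application.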"}, "Phakopsora pachyrhizi": {"tested_on": "Phakopsora pachyrhizi", "assay": "Phakopsora pachyrhizi / soybean / leaf disc preventative (Asian soybean rust)", "format": "in vivo", "details": "foliar, 288 h, 200 ppm in the applied formulation, soybean leaf disks, inoculated one day after application, assessed 12 to 14 days after application, vs untreated, read-out: disease control", "procedure,_shortened": "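Read-out is percent disease control relative to untreated check discs, assessed once untreated discs show adequate disease, 12 to 14 days after application. Compounds, tested at 200 ppm in the applied formulation, are sprayed onto soybean leaf discs one day before inoculation with a spore suspension.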"}, "[2]": {"tested_on": "Glomerella Lagenarium (Colletotrichum Lagenarium)", "assay": "Glomerella lagenarium (Colletotrichum lagenarium) liquid culture / cucumber / preventative (anthracnose)", "format": "cell-based", "details": "Colletotrichum orbiculare; 20 ppm in the applied formulation; liquid culture in PDB, 24° C., inhibition of growth measured photometrically 3 to 4 days after application, vs untreated; read-out: disease control", "procedure,_shortened": "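Conidia from cryogenic storage were mixed into potato dextrose broth. This was added to compound diluted from DMSO into 0.025% Tween20, tested at 20 ppm. Plates were incubated in the dark at 24 °C and 96% relative humidity, and growth was read photometrically after 2–7 days as % activity versus untreated check.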"}, "[3]": {"tested_on": "Puccinia recondita f. Sp. Tritici", "assay": "Puccinia recondita f. sp. tritici / wheat / leaf disc curative (brown rust)", "format": "in vivo", "details": "foliar, 144 h, 200 ppm in the applied formulation, wheat leaf segments cv. Kanzler, applied 1 day after inoculation, assessed 6 to 8 days after application, vs untreated, read-out: disease control", "procedure,_shortened": "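Curative test: wheat leaf segments cv. Kanzler on agar inoculated with spore suspension, kept dark at 19 °C/75% RH, then sprayed 1 day post-inoculation with compound diluted in water. Incubated at 19 °C, 75% RH, 12 h light/dark; percent disease control versus untreated scored 6–8 days after application.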"}}, "note": "Several values for one entry are separate records, joined by “and”; a condition that tells them apart may be missing. Identical values can stand only once.", "data": [{"smiles": "CCOC(=O)c1cnn(CCc2ccc(-c3noc(C(F)(F)F)n3)cc2)c1", "note": "[Compound 1.310, ethyl 1-[2-[4-[5-(trifluoromethyl)-1,2,4-oxadiazol-3-yl]phenyl]ethyl]pyrazole-4-carboxylate]", "values": [{"measurement": "pest or weed control at 200 ppm", "setting": "[1]", "result": "≥ 80", "unit": "%"}, {"measurement": "melting point", "result": "108 to 110", "unit": "°C"}, {"measurement": "pest or weed control at 200 ppm", "setting": "Phakopsora pachyrhizi", "result": "≥ 80", "unit": "%"}]}, {"smiles": "FC(F)(F)c1nc(-c2ccc(Cn3cc(COc4ccccc4)nn3)cc2)no1", "note": "[Compound 1.28, 3-[4-[[4-(phenoxymethyl)triazol-1-yl]methyl]phenyl]-5-(trifluoromethyl)-1,2,4-oxadiazole]", "values": [{"measurement": "pest or weed control at 200 ppm", "setting": "[1]", "result": "≥ 80", "unit": "%"}, {"measurement": "melting point", "result": "103.2 to 104.9", "unit": "°C"}, {"measurement": "pest or weed control at 200 ppm", "setting": "Phakopsora pachyrhizi", "result": "≥ 80", "unit": "%"}, {"measurement": "inhibition of growth at 20 ppm", "setting": "[2]", "result": "≥ 80", "unit": "%"}]}, {"smiles": "CCON=Cc1cnn(Cc2ccc(-c3noc(C(F)(F)F)n3)cc2)c1", "note": "[Compound 1.286, N-ethoxy-1-[1-[[4-[5-(trifluoromethyl)-1,2,4-oxadiazol-3-yl]phenyl]methyl]pyrazol-4-yl]methanimine]", "values": [{"measurement": "pest or weed control at 200 ppm", "setting": "[1]", "result": "≥ 80", "unit": "%"}, {"measurement": "melting point", "result": "80 to 120", "unit": "°C"}, {"measurement": "pest or weed control at 200 ppm", "setting": "Phakopsora pachyrhizi", "result": "≥ 80", "unit": "%"}, {"measurement": "inhibition of growth at 20 ppm", "setting": "[2]", "result": "≥ 80", "unit": "%"}]}, {"smiles": "CCOC(=O)c1cn(Cc2ccc(-c3noc(C(F)(F)F)n3)cc2)nn1", "note": "[Compound 1.276, ethyl 1-[[4-[5-(trifluoromethyl)-1,2,4-oxadiazol-3-yl]phenyl]methyl]triazole-4-carboxylate]", "values": [{"measurement": "pest or weed control at 200 ppm", "setting": "[1]", "result": "≥ 80", "unit": "%"}, {"measurement": "melting point", "result": "134 to 136", "unit": "°C"}, {"measurement": "pest or weed control at 200 ppm", "setting": "Phakopsora pachyrhizi", "result": "≥ 80", "unit": "%"}, {"measurement": "inhibition of growth at 20 ppm", "setting": "[2]", "result": "≥ 80", "unit": "%"}]}, {"smiles": "N#Cc1ncn(Cc2ccc(-c3noc(C(F)(F)F)n3)c(F)c2)n1", "note": "[Compound 1.255, 1-[[3-fluoro-4-[5-(trifluoromethyl)-1,2,4-oxadiazol-3-yl]phenyl]methyl]-1,2,4-triazole-3-carbonitrile]", "values": [{"measurement": "pest or weed control at 200 ppm", "setting": "[1]", "result": "≥ 80", "unit": "%"}, {"measurement": "melting point", "result": "120 to 123", "unit": "°C"}, {"measurement": "pest or weed control at 200 ppm", "setting": "[3]", "result": "≥ 80", "unit": "%"}, {"measurement": "inhibition of growth at 20 ppm", "setting": "[2]", "result": "≥ 80", "unit": "%"}]}, {"smiles": "CCOC(=O)c1cnn(Cc2ccc(-c3noc(C(F)(F)F)n3)nc2)c1", "note": "[Compound 1.269, ethyl 1-[[6-[5-(trifluoromethyl)-1,2,4-oxadiazol-3-yl]-3-pyridyl]methyl]pyrazole-4-carboxylate]", "values": [{"measurement": "pest or weed control at 200 ppm", "setting": "[1]", "result": "≥ 80", "unit": "%"}, {"measurement": "melting point", "result": "88 to 90", "unit": "°C"}, {"measurement": "pest or weed control at 200 ppm", "setting": "[3]", "result": "≥ 80", "unit": "%"}, {"measurement": "inhibition of growth at 20 ppm", "setting": "[2]", "result": "≥ 80", "unit": "%"}]}, {"smiles": "COc1ccc(NC(=O)c2cn(Cc3ccc(-c4noc(C(F)(F)F)n4)cc3)nn2)cc1", "note": "[Compound 1.281, N-(4-methoxyphenyl)-1-[[4-[5-(trifluoromethyl)-1,2,4-oxadiazol-3-yl]phenyl]methyl]triazole-4-carboxamide]", "values": [{"measurement": "pest or weed control at 200 ppm", "setting": "[1]", "result": "≥ 80", "unit": "%"}, {"measurement": "melting point", "result": "205 to 207", "unit": "°C"}, {"measurement": "pest or weed control at 200 ppm", "setting": "[3]", "result": "≥ 80", "unit": "%"}, {"measurement": "inhibition of growth at 20 ppm", "setting": "[2]", "result": "≥ 80", "unit": "%"}]}, {"smiles": "FC(F)(F)c1nc(-c2ccc(CN3CCSCC3)cc2)no1", "note": "[Compound 1.302, 3-[4-(thiomorpholino-methyl)phenyl]-5-(trifluoromethyl)-1,2,4-oxadiazole]", "values": [{"measurement": "pest or weed control at 200 ppm", "setting": "[1]", "result": "≥ 80", "unit": "%"}, {"measurement": "melting point", "result": "54.5 to 56.6", "unit": "°C"}, {"measurement": "pest or weed control at 200 ppm", "setting": "[3]", "result": "≥ 80", "unit": "%"}, {"measurement": "inhibition of growth at 20 ppm", "setting": "[2]", "result": "≥ 80", "unit": "%"}]}, {"smiles": "FC(F)(F)c1nc(-c2ccc(Cn3cc(C4CCCC4)nn3)cc2)no1", "note": "[Compound 1.24, 3-[4-[(4-cyclopentyltriazol-1-yl)methyl]phenyl]-5-(trifluoromethyl)-1,2,4-oxadiazole]", "values": [{"measurement": "pest or weed control at 200 ppm", "setting": "[1]", "result": "≥ 80", "unit": "%"}, {"measurement": "melting point", "result": "117.9 to 118.8 °C and 117 to 119 °C"}, {"measurement": "pest or weed control at 200 ppm", "setting": "Phakopsora pachyrhizi", "result": "≥ 80", "unit": "%"}, {"measurement": "inhibition of growth at 20 ppm", "setting": "[2]", "result": "≥ 80", "unit": "%"}]}, {"smiles": "CC(C)OC(=O)c1cn(Cc2ccc(-c3noc(C(F)(F)F)n3)cc2)nn1", "note": "[Compound 1.278, isopropyl 1-[[4-[5-(trifluoromethyl)-1,2,4-oxadiazol-3-yl]phenyl]methyl]triazole-4-carboxylate]", "values": [{"measurement": "pest or weed control at 200 ppm", "setting": "[1]", "result": "≥ 80", "unit": "%"}, {"measurement": "melting point", "result": "146 to 148", "unit": "°C"}, {"measurement": "pest or weed control at 200 ppm", "setting": "Phakopsora pachyrhizi", "result": "≥ 80", "unit": "%"}, {"measurement": "inhibition of growth at 20 ppm", "setting": "[2]", "result": "≥ 80", "unit": "%"}]}]}
